The results in this text go back to patent US7858776B2, “Lactams and uses thereof” (AstraZeneca AB, priority 2002, dated 2010).

Where a name gives a salt, the structure may show the parent alone.

The melting point is the temperature, or range, at which the solid turns liquid. Compound `C[C@H](NCCc1ccccc1)C(=O)N[C@@H]1C(=O)Nc2ccccc2S[C@@H]1c1ccccc1` (as salt: hydrochloride) [Example 98, N^1-[(2R,3R)-4-Oxo-2-phenyl-2,3,4,5-tetrahydro-1,5-benzothiazepin-3-yl]-N^2-(2-Phenylethyl)-L-alaninamide] displayed a melting point of 184 to 195 °C.
Take `C[C@H](NC(=O)Cc1cc(F)cc(F)c1)C(=O)N[C@@H]1C(=O)NCCS[C@@H]1c1ccccc1` [Example 7, N^2-[(3,5-Difluorophenyl)acetyl]-N^1-[(6R,7R)-5-oxo-7-phenyl-1,4-thiazepan-6-yl]-L-alaninamide]: the melting point fell in the range of 128 to 133 °C.
`CC(C)C[C@H](O)C(=O)N[C@@H](C)C(=O)N[C@@H]1C(=O)NCCS[C@@H]1c1ccccc1` [Example 93, N^2-[(2S)-2-Hydroxy-4-methyl-1-oxopentyl]-N^1-[(6R,7R)-5-oxo-7-phenyl-1,4-thiazepan-6-yl]-L-alaninamide] yielded a melting point of 93 to 99 °C.
As to `C[C@H](NC(=O)Cc1ccccc1)C(=O)N[C@@H]1C(=O)Nc2ccccc2S[C@@H]1c1ccccc1` [Example 97, N^1-[(2R,3R)-4-Oxo-2-phenyl-2,3,4,5-tetrahydro-1,5-benzothiazepin-3-yl]-N^2-(phenylacetyl)-L-alaninamide], the melting point was in the range of 114 to 124 °C.
As for `C[C@H](NC(=O)Cc1cc(F)cc(F)c1)C(=O)N[C@@H]1C(=O)Nc2ccccc2S[C@@H]1c1cccs1` [Example 99, N^2-[(3,5-Difluorophenyl)acetyl]-N^1-[(2S,3R)-4-oxo-2-(2-thienyl)-2,3,4,5-tetrahydro-1,5-benzothiazepin-3-yl]-L-alaninamide], the figure is 117 to 119 °C.
As to `C[C@H](NC(=O)Cc1cc(F)cc(F)c1)C(=O)N[C@@H]1C(=O)Nc2ccccc2S[C@@H]1c1ccco1` [Example 101, N^2-[(3,5-Difluorophenyl)acetyl]-N^1-[(2S,3R)-2-(2-furyl)-4-oxo-2,3,4,5-tetrahydro-1,5-benzothiazepin-3-yl]-L-alaninamide], the melting point was in the range of 125 to 130 °C.
On to `C[C@H](NC(=O)Cc1cc(F)cc(F)c1)C(=O)N[C@@H]1C(=O)Nc2ccccc2S[C@H]1c1ccoc1` [Example 102, N^2-[(3,5-Difluorophenyl)acetyl]-N^1-[(2S,3R)-2-(3-furyl)-4-oxo-2,3,4,5-tetrahydro-1,5-benzothiazepin-3-yl]-L-alaninamide], for which the melting point was 115 to 120 °C.
With `C[C@H](NC(=O)Cc1cc(F)cc(F)c1)C(=O)N[C@@H]1C(=O)Nc2ccccc2S[C@@H]1c1cc(Br)cs1` [Example 104, N^1-[(2S,3R)-2-(4-Bromo-2-thienyl)-4-oxo-2,3,4,5-tetrahydro-1,5-benzothiazepin-3-yl]-N^2-[(3,5-difluorophenyl)acetyl]-L-alaninamide] the figure was 145 to 155 °C; with `N[C@@H](Cc1ccccc1)C(=O)N(C(=O)Cc1cc(F)cc(F)c1)[C@@H]1C(=O)Nc2ccccc2S[C@@H]1c1ccccc1` [Example 105, N-[(3,5-Difluorophenyl)acetyl]-N-[(2R,3R)-4-oxo-2-phenyl-2,3,4,5-tetrahydro-1,5-benzothiazepin-3-yl]-L-phenylalaninamide], 115 to 120 °C; with `O=C(Cc1cc(F)cc(F)c1)NCC(=O)N[C@@H]1C(=O)Nc2ccccc2S[C@@H]1c1ccccc1` [Example 106, N^2-[(3,5-Difluorophenyl)acetyl]-N^1-[(2R,3R)-4-oxo-2-phenyl-2,3,4,5-tetrahydro-1,5-benzothiazepin-3-yl]glycinamide], 125 to 130 °C.
Regarding `CC(C)[C@H](NC(=O)Cc1cc(F)cc(F)c1)C(=O)N[C@@H]1C(=O)Nc2ccccc2S[C@@H]1c1ccccc1` [Example 107, N^2-[(3,5-Difluorophenyl)acetyl]-N^1-[(2R,3R)-4-oxo-2-phenyl-2,3,4,5-tetrahydro-1,5-benzothiazepin-3-yl]-L-valinamide], the melting point lay in the range of 110 to 115 °C.
Compound `CSCC[C@H](NC(=O)Cc1cc(F)cc(F)c1)C(=O)N[C@@H]1C(=O)Nc2ccccc2S[C@@H]1c1ccccc1` [Example 109, N^2-[(3,5-Difluorophenyl)acetyl]N^1-[(2R,3R)-4-oxo-2-phenyl-2,3,4,5-tetrahydro-1,5-benzothiazepin-3-yl]-L-methioninamide] came in with a melting point of 85 to 90 °C.
`O=C(Cc1cc(F)cc(F)c1)N[C@@H](Cc1cc2ccccc2[nH]1)C(=O)N[C@@H]1C(=O)Nc2ccccc2S[C@@H]1c1ccccc1` [Example 110, N^2-[(3,5-Difluorophenyl)acetyl]-3-(1H-indol-2-yl)-N^1-[(2R,3R)-4-oxo-2-phenyl-2,3,4,5-tetrahydro-1,5-benzothiazepin-3-yl]-L-alaninamide] showed a melting point of 85 to 90 °C.
As for `C[C@H](NC(=O)Cc1ccccc1)C(=O)N[C@@H]1C(=O)Nc2ccccc2O[C@@H]1c1ccccc1` [Example 113, N^1-[(2R,3S)-4-Oxo-2-phenyl-2,3,4,5-tetrahydro-1,5-benzoxazepin-3-yl]-N^2-(phenylacetyl)-L-alaninamide], the figure is 122 to 136 °C; as for `C[C@H](NC(=O)Cc1ccccc1F)C(=O)N[C@@H]1C(=O)Nc2ccccc2O[C@@H]1c1ccccc1` [Example 114, N^2-[(2-Fluorophenyl)acetyl]-N^1-[(2R,3S)-4-oxo-2-phenyl-2,3,4,5-tetrahydro-1,5-benzoxazepin-3-yl]-L-alaninamide], 115 to 135 °C.
Turning to `C[C@H](NC(=O)Cc1cccc(F)c1)C(=O)N[C@@H]1C(=O)Nc2ccccc2O[C@@H]1c1ccccc1` [Example 115, N^2-[(3-Fluorophenyl)acetyl]-N^1-[(2R,3S)-4-oxo-2-phenyl-2,3,4,5-tetrahydro-1,5-benzoxazepin-3-yl]-L-alaninamide], the melting point was 130 to 140 °C.
`C[C@H](NC(=O)Cc1ccc(F)cc1)C(=O)N[C@@H]1C(=O)Nc2ccccc2O[C@@H]1c1ccccc1` [Example 116, N^2-[(4-Fluorophenyl)acetyl]-N^1-[(2R,3S)-4-oxo-2-phenyl-2,3,4,5-tetrahydro-1,5-benzoxazepin-3-yl]-L-alaninamide] gave a melting point of 130 to 140 °C.
